# What was measured:
# human PiT-2 = biological target: T1, human PiT-2 (Homo sapiens, UniProt Q08357); experiment: Inhibitory effect on 33PO4 uptake into human PiT-2-expressing CHO cells; format: cell-based; details: pH 6.5, read-out: IC50 against 33PO4 uptake into human PiT-2-expressing cells
# T1 construct: expressed in transfected cells; host or cells: CHO cells
# T1 sequence (Q08357 1-652): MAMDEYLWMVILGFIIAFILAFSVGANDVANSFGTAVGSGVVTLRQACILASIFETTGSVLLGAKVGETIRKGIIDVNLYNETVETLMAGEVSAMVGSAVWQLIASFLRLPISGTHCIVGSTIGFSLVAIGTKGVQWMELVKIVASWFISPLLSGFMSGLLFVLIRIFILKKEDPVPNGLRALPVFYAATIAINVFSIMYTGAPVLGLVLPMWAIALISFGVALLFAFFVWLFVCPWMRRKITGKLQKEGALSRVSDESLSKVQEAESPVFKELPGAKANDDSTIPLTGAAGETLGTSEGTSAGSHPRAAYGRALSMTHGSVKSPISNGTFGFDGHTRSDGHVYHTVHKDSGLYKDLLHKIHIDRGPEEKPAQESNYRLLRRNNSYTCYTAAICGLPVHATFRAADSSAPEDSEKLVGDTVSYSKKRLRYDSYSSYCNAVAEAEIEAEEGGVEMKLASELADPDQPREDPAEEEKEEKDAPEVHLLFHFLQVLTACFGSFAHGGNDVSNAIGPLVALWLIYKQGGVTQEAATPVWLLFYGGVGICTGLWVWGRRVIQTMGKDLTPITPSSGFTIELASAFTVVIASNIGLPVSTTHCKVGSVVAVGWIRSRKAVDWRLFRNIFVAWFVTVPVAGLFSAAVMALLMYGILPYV
# Procedure: Test Example 4: Inhibitory Effect on ^33PO4 Uptake into Human PiT-2-Expressing Cell
# CHO cells were transfected with human PiT-2 expression plasmids or empty vectors to prepare human PiT-2-expressing cells and empty vector-expressing cells. The human PiT-2-expressing cells or the empty vector-expressing cells were inoculated to a 96-well plate and incubated overnight in a CO2 incubator. […] After a given time, a 1/20 volume of buffer A containing ^33PO4 was added thereto and reacted at room temperature. After washing with ice-cold buffer A, a liquid scintillator was added to each reaction mixture, and the amount of ^33PO4 uptake was measured using TopCount. The rate of inhibition was determined according to the following expression: Rate (%) of inhibition=(1−(Amount of ^33PO4 uptake in the compound-supplemented well containing the human PiT-2-expressing cells−Amount of ^33PO4 uptake in the compound-supplemented well containing the empty vector-expressing cells)/(Amount of ^33PO4 uptake in the DMSO-supplemented well containing the human PiT-2-expressing cells −Amount of ^33PO4 uptake in the DMSO-supplemented well containing the empty vector-expressing cells))×100
# human NaPi-IIb = biological target: T2, human NaPi-IIb (Homo sapiens, UniProt O95436); experiment: Inhibitory effect on 33PO4 uptake into human NaPi-IIb-expressing CHO cells; format: cell-based; details: read-out: IC50
# T2 construct: expressed in transfected cells
# T2 sequence (O95436 1-690): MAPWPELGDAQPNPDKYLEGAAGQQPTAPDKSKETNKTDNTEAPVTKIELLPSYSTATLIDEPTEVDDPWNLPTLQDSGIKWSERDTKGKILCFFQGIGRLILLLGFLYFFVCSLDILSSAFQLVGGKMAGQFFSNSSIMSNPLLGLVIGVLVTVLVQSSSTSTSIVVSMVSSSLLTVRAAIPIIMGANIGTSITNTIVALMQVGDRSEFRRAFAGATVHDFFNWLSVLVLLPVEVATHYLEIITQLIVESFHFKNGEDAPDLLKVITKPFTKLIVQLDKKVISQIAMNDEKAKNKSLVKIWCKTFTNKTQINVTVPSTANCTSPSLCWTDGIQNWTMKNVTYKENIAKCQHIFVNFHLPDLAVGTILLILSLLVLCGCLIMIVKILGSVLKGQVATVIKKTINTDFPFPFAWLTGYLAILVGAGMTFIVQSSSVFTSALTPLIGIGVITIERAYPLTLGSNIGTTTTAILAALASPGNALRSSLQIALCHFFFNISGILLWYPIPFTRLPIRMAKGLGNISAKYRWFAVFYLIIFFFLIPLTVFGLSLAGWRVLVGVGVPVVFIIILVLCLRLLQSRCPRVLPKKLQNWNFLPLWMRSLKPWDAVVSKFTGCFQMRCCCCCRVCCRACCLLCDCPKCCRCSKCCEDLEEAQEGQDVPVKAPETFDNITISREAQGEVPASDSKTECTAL
# Summary of the method: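 Uptake of ³³PO4 was measured by scintillation counting after ice-cold buffer A washes. Cells were CHO stably expressing human NaPi-IIb, seeded overnight, and exposed to ³³PO4 in buffer A at room temperature.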
# [1] = test system: rat small-intestinal brush border membrane vesicles; experiment: Inhibitory effect on 33PO4 uptake into rat small-intestinal brush border membrane vesicles (rapid filtration method); format: biochemical; details: 1 μM test compound; 33PO4 uptake into rat small-intestinal BBMVs, reacted for 60 seconds
# Procedure: Test Example 1: Inhibitory Effect on ^33PO4 Uptake into Rat Small-Intestinal Brush Border Membrane Vesicles Brush border membrane vesicles (BBMVs) were prepared using the upper region of the small intestine of each Wistar female rat (4-5 weeks old). The preparation of BBMVs was performed according to the method of Murer et al. (Murer […]. Sodium/proton antiport in brush-border-membrane vesicles isolated from rat small intestine and kidney. 1976. J Am Soc Nephrol. 1998 January; 9 (1): 143-50). The ^33PO4 transport activity of the small-intestinal BBMVs was determined by the rapid filtration method. […] Then, ice-cold buffer C (110 mM NaCl, 1 mM KH2PO4, and 10 mM HEPES (pH 7.5)) was added to each reaction mixture, which was immediately suction-filtered through a Millipore filter. The filter was washed with buffer C, and each sample was then dissolved in a liquid scintillator. The amount of ^33PO4 uptake into BBMVs was measured using a liquid scintillation counter.
Compound,IC50 (human PiT-2) [µM],IC50 (human NaPi-IIb) [µM],Rate of uptake inhibition (%) (1 μM) [1]
"Cc1c(C#N)ncnc1-c1cc(C(F)(F)F)ccc1NC(=O)C1=C(O)[C@@]2(C)CCCN2N(Cc2ccc(OCCN3CCOCC3)c(F)c2F)C1=O [Example 22, (4aR)-N-[2-(6-Cyano-5-methylpyrimidin-4-yl)-4-(trifluoromethyl)phenyl]-1-[[2,3-difluoro-4-(2-morpholin-4-ylethoxy)phenyl]methyl]-4-hydroxy-4a-methyl-2-oxo-6,7-dihydro-5H-pyrrolo [1,2-b]pyridazine-3-carboxamide]",3.2,7.9,
COc1nc(C#N)ncc1-c1cc(C(F)(F)F)ccc1NC(=O)C1=C(O)[C@@]2(C)CCCN2N(Cc2cccc(F)c2F)C1=O [Example 56],,7.2,88
COc1c(Cl)ncnc1-c1cc(C(F)(F)F)ccc1NC(=O)C1=C(O)[C@@]2(C)CCCN2N(Cc2cccc(F)c2F)C1=O [Example 49],,12.9,85
C[C@]12CCCN1N(Cc1cccc(C#N)c1)C(=O)C(C(=O)Nc1ccc(C(F)(F)F)cc1-c1cnc(Cl)c(C#N)c1)=C2O [Example 51],,16,72
C[C@]12CCCN1N(Cc1cccc(F)c1Br)C(=O)C(C(=O)Nc1ccc(Br)c(C#N)c1)=C2O [Example 40],,6.5,87
C[C@]12CCCN1N(Cc1cccc(F)c1)C(=O)C(C(=O)Nc1cc(F)c(Br)c(F)c1)=C2O [Example 36],,6.1,80
C[C@]12CCCN1N(Cc1cccc(F)c1F)C(=O)C(C(=O)Nc1ccc(C(F)(F)F)cc1-c1cccc(F)c1C#N)=C2O [Example 48],,16.3,87
C[C@]12CCCN1N(Cc1ccc(OCCN3CCOCC3)c(F)c1F)C(=O)C(C(=O)Nc1ccc(C(F)(F)F)nc1-c1ccccc1OC(F)(F)F)=C2O [Example 59],,7.4,84
C[C@]12CCCN1N(Cc1cccc(F)c1Br)C(=O)C(C(=O)Nc1ccc(Cl)cc1F)=C2O [Example 38],,6.7,90
C[C@]12CCCN1N(Cc1ccc(OCCN3CCOCC3)c(F)c1F)C(=O)C(C(=O)Nc1ccc(C(F)(F)F)nc1-c1ccc(OC(F)(F)F)cc1)=C2O [Example 60],,8.8,78
CSc1ccc(-c2cc(C(F)(F)F)ccc2NC(=O)C2=C(O)[C@@]3(C)CCCN3N(Cc3cccc(F)c3F)C2=O)cn1 [Example 97],,2.7,89

# Continued by falling IC50 (human NaPi-IIb), values first:
IC50 (human PiT-2) [µM],IC50 (human NaPi-IIb) [µM],Compound,Rate of uptake inhibition (%) (1 μM) [1]
,8.8,C[C@]12CCCN1N(Cc1cccc(F)c1F)C(=O)C(C(=O)Nc1ccc(C(F)(F)F)cc1-c1ccc(C#N)nc1)=C2O [Example 94],73
,8.5,Cc1nc(NC(=O)C2=C(O)[C@@]3(C)CCCN3N(Cc3cccc(F)c3Br)C2=O)ccc1Br [Example 39],90
,8.3,C[C@]12CCCN1N(Cc1cccc(F)c1Br)C(=O)C(C(=O)Nc1cccc(Cl)c1F)=C2O [Example 43],79
,7.1,Cc1c(-c2cc(C(F)(F)F)ccc2NC(=O)C2=C(O)[C@@]3(C)CCCN3N(Cc3cccc(F)c3F)C2=O)ccnc1Cl [Example 47],91
,6,C[C@]12CCCN1N(Cc1cccc(F)c1F)C(=O)C(C(=O)Nc1cc(Br)c(Br)cc1F)=C2O [Example 33],77
,3.7,C[C@]12CCCN1N(Cc1cccc(F)c1Br)C(=O)C(C(=O)Nc1ccc(Br)c(F)c1)=C2O [Example 37],89
,2.3,CSc1ncc(-c2nc(C(F)(F)F)ccc2NC(=O)C2=C(O)[C@@]3(C)CCCN3N(Cc3cccc(F)c3F)C2=O)cn1 [Example 54],72
,2.3,C[C@]12CCCN1N(Cc1cccc(F)c1F)C(=O)C(C(=O)Nc1ccc(Br)c(C(F)(F)F)c1)=C2O [Example 30],71
